Measured values as given in ChEMBL document CHEMBL1201862, “PubChem BioAssay data set” (2004).
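Cultured in 96-well plates, cells were exposed to test compound for 48 hours across five concentrations. Here, GI50 denotes the concentration required for 50% inhibition of growth.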 Calls of active or inactive are those of the source. Rule as the data show it: active = GI50 up to about 1.1 µM and inactive = higher.

Assays:
Experiment in all cases: inhibition of tumour cell growth, NCI panel, 48 h
MOLT-4 = system: MOLT-4
T47D = system: T47D
SR = system: SR
SK-MEL-28 = system: SK-MEL-28
HOP-62 = system: HOP-62
SN12C = system: SN12C
NCI-H226 = system: NCI-H226
OVCAR-4 = system: OVCAR-4
MDA-MB-231 = system: MDA-MB-231
OVCAR-5 = system: OVCAR-5
SF-539 = system: SF-539
CCRF-CEM = system: CCRF-CEM
NCI-H23 = system: NCI-H23
TK-10 = system: TK-10
MDA-MB-435 = system: MDA-MB-435
DU-145 = system: DU-145
HL-60 = system: HL-60
UO-31 = system: UO-31
PC-3 = system: PC-3
IGROV-1 = system: IGROV-1

Row | SMILES | GI50 (MOLT-4) | GI50 (T47D) | GI50 (SR) | GI50 (SK-MEL-28) | GI50 (HOP-62) | GI50 (SN12C) | GI50 (NCI-H226) | GI50 (OVCAR-4) | GI50 (MDA-MB-231) | GI50 (OVCAR-5) | GI50 (SF-539) | GI50 (CCRF-CEM) | GI50 (NCI-H23) | GI50 (TK-10) | GI50 (MDA-MB-435) | GI50 (DU-145) | GI50 (HL-60) | GI50 (UO-31) | GI50 (PC-3) | GI50 (IGROV-1)
1 | CCCC(=O)Nc1cc(/C=C/C(=O)N2CC(CCl)c3ccc(N)cc32)n(C)c1 (stereo not given) | 0.17 µM (active) | 0.158 µM (active) | 0.0242 µM (active) | 0.292 µM (active) | 0.484 µM (active) | 0.317 µM (active) | 0.282 µM (active) | 0.188 µM (active) | 0.275 µM (active) | 0.375 µM (active) | 0.22 µM (active) | 0.195 µM (active) | 0.145 µM (active) | 0.112 µM (active) | 0.256 µM (active) | 0.0361 µM (active) | 0.206 µM (active) | 0.159 µM (active) | 0.215 µM (active) | 0.229 µM (active)
2 | O=C(N/N=C\c1cccc2c([N+](=O)[O-])cccc12)Nc1ccccc1 | 13.4 µM (inactive) | 6.04 µM (inactive) | 11.3 µM (inactive) | 16.4 µM (inactive) | 16.2 µM (inactive) | 4.59 µM (inactive) | 13.6 µM (inactive) | 11.6 µM (inactive) | 17.8 µM (inactive) | 15.1 µM (inactive) | 11.5 µM (inactive) | 10.5 µM (inactive) | 15.8 µM (inactive) | 11.7 µM (inactive) | 9.29 µM (inactive) | 26.9 µM (inactive) | 14.7 µM (inactive) | 13.2 µM (inactive) | 14.8 µM (inactive) | 19 µM (inactive)
3 | C=C1C(=O)O[C@@H]2O[C@@]3(C)CC[C@H]4[C@H](C)CC[C@@H]1[C@@]24O3 [DEOXYARTEMISITENE] | 9.08 µM (inactive) | 13.6 µM (inactive) | 7.18 µM (inactive) | 40.6 µM (inactive) | 49.5 µM (inactive) | 19 µM (inactive) | 40 µM (inactive) | 15.8 µM (inactive) | 25.9 µM (inactive) | 38.5 µM (inactive) | 11 µM (inactive) | 3.47 µM (inactive) | 15.2 µM (inactive) | 15.9 µM (inactive) | 29.2 µM (inactive) | 12.9 µM (inactive) | 2.63 µM (inactive) | 19.3 µM (inactive) | 19.5 µM (inactive) | 3.38 µM (inactive)
4 | CCCCC(=O)Oc1ccc2c(C)cc(=O)oc2c1 | > 100 µM (inactive) | > 100 µM (inactive) | > 100 µM (inactive) | > 100 µM (inactive) | > 100 µM (inactive) | > 100 µM (inactive) | > 100 µM (inactive) | > 100 µM (inactive) | > 100 µM (inactive) | > 100 µM (inactive) | > 100 µM (inactive) | > 100 µM (inactive) | > 100 µM (inactive) | > 100 µM (inactive) | > 100 µM (inactive) | > 100 µM (inactive) | > 100 µM (inactive) | > 100 µM (inactive) | > 100 µM (inactive) | > 100 µM (inactive)
5 | CC1(C)NC(C(=O)c2ccccc2)=[N+]([O-])C1(O)c1ccccc1 (stereo not given) | > 100 µM (inactive) | > 100 µM (inactive) | > 100 µM (inactive) | > 100 µM (inactive) | > 100 µM (inactive) | > 100 µM (inactive) | > 100 µM (inactive) | > 100 µM (inactive) | > 100 µM (inactive) | > 100 µM (inactive) | > 100 µM (inactive) | > 100 µM (inactive) | > 100 µM (inactive) | > 100 µM (inactive) | > 100 µM (inactive) | > 100 µM (inactive) | > 100 µM (inactive) | 69.8 µM (inactive) | > 100 µM (inactive) | > 100 µM (inactive)
6 | Cc1cc(O)ccc1C1(c2ccc(F)cc2)OC(=O)c2ccccc21 (stereo not given) | 15.5 µM (inactive) | 0.318 µM (active) | 13.4 µM (inactive) | 13.1 µM (inactive) | 5.65 µM (inactive) | 0.485 µM (active) | 2.38 µM (inactive) | 0.289 µM (active) | 7.01 µM (inactive) | 6.64 µM (inactive) | 2.99 µM (inactive) | 28.3 µM (inactive) | 0.787 µM (active) | 4.01 µM (inactive) | 13.8 µM (inactive) | 4.61 µM (inactive) | 34 µM (inactive) | 4 µM (inactive) | 2.24 µM (inactive) | 2.21 µM (inactive)
7 | COc1cccc(C2c3cc4c(cc3OC(C)(N3CCCC3)C2C)OCO4)c1O (stereo not given) | 6.64 µM (inactive) | 12.1 µM (inactive) | 2.06 µM (inactive) | 12.2 µM (inactive) | 7.98 µM (inactive) | 6.58 µM (inactive) | 4.49 µM (inactive) | 13.3 µM (inactive) | 3.01 µM (inactive) | 8.36 µM (inactive) | 4.31 µM (inactive) | 9.06 µM (inactive) | 3.05 µM (inactive) | 5.4 µM (inactive) | 1.63 µM (inactive) | 3.52 µM (inactive) | 2.71 µM (inactive) | 10.9 µM (inactive) | 3.32 µM (inactive) | 6.01 µM (inactive)
8 | COc1cc2c(/C=C3/C(=O)N(C)c4ccc(O)cc43)c(Cl)[nH]c2cc1C | 0.209 µM (active) | 3.41 µM (inactive) | 0.133 µM (active) | 2.22 µM (inactive) | 0.327 µM (active) | 0.776 µM (active) | 0.516 µM (active) | 1.8 µM (inactive) | 0.738 µM (active) | 3.79 µM (inactive) | 0.248 µM (active) | 0.284 µM (active) | 0.329 µM (active) | 2.81 µM (inactive) | 0.0284 µM (active) | 0.655 µM (active) | 0.281 µM (active) | 1.64 µM (inactive) | 1.38 µM (inactive) | 0.733 µM (active)
9 | CN1c2ccc(O)c(O)c2-c2cc(O)cc3c2C1CCC3 (stereo not given) | 7.4 µM (inactive) | 15.9 µM (inactive) | 7 µM (inactive) | 20.8 µM (inactive) | 14.1 µM (inactive) | 17.5 µM (inactive) | 27.9 µM (inactive) | 13.4 µM (inactive) | 23.7 µM (inactive) | 24.5 µM (inactive) | 21.6 µM (inactive) | 2.58 µM (inactive) | 22.9 µM (inactive) | 18 µM (inactive) | 15.6 µM (inactive) | 16 µM (inactive) | 14.6 µM (inactive) | 13.6 µM (inactive) | 19.2 µM (inactive) | 11.6 µM (inactive)
10 | CC1(C)CCCC2(C)C3=C(CCC12)C(=O)OC3 (stereo not given) | 18.3 µM (inactive) | 59.2 µM (inactive) | 39.4 µM (inactive) | > 100 µM (inactive) | > 100 µM (inactive) | > 100 µM (inactive) | > 100 µM (inactive) | 55.7 µM (inactive) | > 100 µM (inactive) | > 100 µM (inactive) | > 100 µM (inactive) | > 100 µM (inactive) | > 100 µM (inactive) | > 100 µM (inactive) | > 100 µM (inactive) | > 100 µM (inactive) | 17.6 µM (inactive) | 38.9 µM (inactive) | > 100 µM (inactive) | > 100 µM (inactive)
11 | CC(C)(C)OC(=O)NC(CS(=O)(=O)O)C(=O)O (stereo not given) | > 100 µM (inactive) | > 100 µM (inactive) | > 100 µM (inactive) | > 100 µM (inactive) | > 100 µM (inactive) | > 100 µM (inactive) | > 100 µM (inactive) | > 100 µM (inactive) | > 100 µM (inactive) | > 100 µM (inactive) | > 100 µM (inactive) | > 100 µM (inactive) | > 100 µM (inactive) | > 100 µM (inactive) | > 100 µM (inactive) | > 100 µM (inactive) | > 100 µM (inactive) | > 100 µM (inactive) | > 100 µM (inactive) | > 100 µM (inactive)
12 | COc1cccc(-c2cccc(SC)n2)n1 | 21.5 µM (inactive) | 18.2 µM (inactive) | 18.1 µM (inactive) | 29.6 µM (inactive) | 27.9 µM (inactive) | 36.8 µM (inactive) | 15.8 µM (inactive) | 36.2 µM (inactive) | 40.4 µM (inactive) | 29.2 µM (inactive) | 32.1 µM (inactive) | 18.2 µM (inactive) | 23.8 µM (inactive) | 39.2 µM (inactive) | 26.4 µM (inactive) | 34.4 µM (inactive) | 12.1 µM (inactive) | 30.5 µM (inactive) | 38.6 µM (inactive) | 27.2 µM (inactive)
13 | Cc1cc(S(=O)(=O)Nc2n[nH]c(-c3ccc(Cl)cc3)n2)c(SSc2cc(Cl)c(C)cc2S(=O)(=O)Nc2n[nH]c(-c3ccc(Cl)cc3)n2)cc1Cl | 25.8 µM (inactive) | 14.6 µM (inactive) | 25.5 µM (inactive) | 33 µM (inactive) | 54.5 µM (inactive) | 43.6 µM (inactive) | 22.5 µM (inactive) | 28.5 µM (inactive) | 31.3 µM (inactive) | 22 µM (inactive) | 40.8 µM (inactive) | 25.9 µM (inactive) | 34.5 µM (inactive) | 58.3 µM (inactive) | 31.7 µM (inactive) | 32.1 µM (inactive) | 23.2 µM (inactive) | 29.4 µM (inactive) | 29.2 µM (inactive) | 22 µM (inactive)
14 | COc1ccc2cc(CNCCCN3CCN(CCCNCc4ccc5cc(OC)ccc5c4)CC3)ccc2c1 | 0.859 µM (active) | 1.32 µM (inactive) | 0.333 µM (active) | 1.71 µM (inactive) | 1.65 µM (inactive) | 1.69 µM (inactive) | 1.91 µM (inactive) | 1.96 µM (inactive) | 1.9 µM (inactive) | 1.17 µM (inactive) | 1.81 µM (inactive) | 0.45 µM (active) | 1.91 µM (inactive) | 1.89 µM (inactive) | 1.6 µM (inactive) | 1.54 µM (inactive) | 0.24 µM (active) | 1.76 µM (inactive) | 0.966 µM (active) | 1.72 µM (inactive)
